The text below walks through data of publication PMC9695356, “Development and Validation of an LC-MS/MS Method for Simultaneous Determination of Short Peptide-Based Drugs in Human Blood Plasma” (Molecules, 2022).

Data set [1] in a line: clinical. Particulars: male, human, in vivo, sc.
Experimental: (§1) A 1000 μL volume of blank plasma was placed in a 2 mL Eppendorf tube. Then, 10 μL of internal standard solution (50 μg/mL) was added to the tube, and the mixture was vortexed. An amount of 100 μL of the resulting sample was then transferred to another centrifuge tube, and 200 μL of methanol/deionized water/formic acid (60:40:0.08) mixture was added, followed by 500 μL of methanol. The sample was then centrifuged at 14,500 rpm for 15 min.
(§2) For the solid-phase extraction (SPE), the SPE cartridge was pre-treated with 1 mL methanol, followed by 1 mL of deionized water. The sample mixture was diluted with 500 μL of deionized water and gently loaded onto an SPE Oasis® HLB 1cc 30 mg cartridge (Waters Corporation, Milford, MA, USA). The SPE cartridge was washed with 1 mL deionized water, followed by 1 mL of methanol/deionized water (60:40) mixture. The sample was then eluted with 1 mL 0.1% formic acid (methanol solution) and evaporated to dryness (for 20 min) at 45 °C under a stream of nitrogen. The dry residue was then reconstituted with 100 μL of methanol/deionized water/formic acid (60:40:0.08) mixture.
(§3) The chromatographic separation was performed on a Jupiter® C18 column (5 μm, 50 × 4.6 mm 300 Å) (Phenomonex, Torrance, CA, USA). The mobile phase consisted of 0.1% v/v formic acid aqueous solution (solvent A) and 0.1% v/v formic acid in acetonitrile (solvent B). The mobile phase composition was changed gradually in a gradient elution (Table 5) with a constant flow rate of 1.2 mL/min. The temperature of the column oven was kept at 30 °C. After the sample preparation procedure, 30 μL of supernatant was injected into the LC-MS/MS system.
(§4) Detection was performed with triple quadruple tandem mass spectrometry in the positive ion mode (5 kW) using the MRM mode. Nitrogen was used as a nebulizer (3 L/h) and drying (20 L/h) gas. The desolvation temperature was set at 200 °C, and the source temperature was 400 °C.
The nature of data set [2]: LC-MS/MS quantitation of GnRH analogs in blood plasma of prostate cancer patients (therapeutic monitoring). Particulars: patients on goserelin therapy; conclusion from the obtained data.
Experimental: as §1, §2, §3, §4
For data set [3] the following is noted: native hormone; cited from earlier work. The text has this:
Gonadotropin-releasing hormone (GnRH) is a decapeptide released by hypothalamic neurons, which stimulates GnRH-mediated pituitary secretion of both luteinizing hormone (LH) and follicle-stimulating hormone (FSH). […] Goserelin, buserelin, and triptorelin are GnRH agonists, a relatively new class of drugs. The long-term administration of these agonists results in a significant decrease in estrogen and testosterone blood levels. ...

In data set [1] (3.6 mg), `CC(C)C[C@H](NC(=O)[C@@H](COC(C)(C)C)NC(=O)[C@H](Cc1ccc(O)cc1)NC(=O)[C@H](CO)NC(=O)[C@H](Cc1c[nH]c2ccccc12)NC(=O)[C@H](Cc1cnc[nH]1)NC(=O)[C@@H]1CCC(=O)N1)C(=O)N[C@@H](CCCNC(=N)N)C(=O)N1CCC[C@H]1C(=O)NNC(N)=O` [Goserelin, Goserelin acetate] came in with a level at 8 day of a 28-day dosing cycle of 0.95 ng/mL and a level at 16 day of a 28-day dosing cycle of 16.2 ng/mL. In data set [1] (10.8 mg), this compound registered a level at 10 day of an 84-day dosing cycle of 7.81 ng/mL, a level at 29 day of an 84-day dosing cycle of 13.6 ng/mL and a level at 59 day of an 84-day dosing cycle of 0.55 ng/mL. Further, in data set [2], the “Time at which plasma concentration starts to increase” value was “second week”.

Consider Gonadotropin-releasing hormone [GnRH], for which the Half-life result in data set [3] is reported as “several minutes”.
